The conditions of series [1]: cited from earlier work.
Another series concerns P-388 tumor. The following applies: cited from earlier work; for life-span of mice bearing i.p. implanted P-388 tumor: control animals 10 days.
The test system of a further series is L-1210 leukemia. The following applies: 30 to 40 mg/kg dosage; cited from earlier work.
Another series deals with E. coli (Vogel). Briefly: Autotiter in vitro antibacterial test, E. coli (Vogel). The class given is cell-based. The following applies: Escherichia coli, 18-20 hours at 37° C., read-out: minimal inhibitory concentration (MIC). How it is done: (§1) The antibacterial activity of the compounds of formula I was determined using a modification of the Autotiter® method described by Goss et al. [Applied Microbiology 16 (9), 1414-1416 (1968)] in which a 1,000 mcg./ml. solution of the test compound is prepared. To the first cup of the Autotray® is added 0.1 ml. of the test solution. Activation of the Autotiter initiates a sequence of operations by which 0.05 ml. of the test compound solution is withdrawn from the cup by a Microtiter® transfer loop and diluted in 0.05 ml. of sterile water. Following this operation, 0.05 ml. of inoculated double-strength semisynthetic medium (glucose) is added automatically to each cup. The overall operation results in final drug concentrations ranging from 500 to 0.06 mcg./ml. in twofold decrements. The Autotray is incubated for 18-20 hours at 37° C. at which time the trays are examined visually for growth as evidenced by turbidity, and the concentration of the last sample in the series showing no growth (or no turbidity) is recorded as the minimal inhibitory concentration (MIC) in mcg./ml. The compounds were thus tested as solutions and found active in the range of 7.8 to 125 mcg./ml. (MIC) against one or more of various gram positive and gram negative bacteria including Staphylococcus aureus, Proteus mirabilis, Escherichia coli, Klebsiella pneumoniae and Streptococcus pyogenes.

The test system of a further series is Strep. pyogens. The series can be described thus: Autotiter in vitro antibacterial test, Strep. pyogens. It is filed as cell-based. The following applies: Streptococcus pyogenes, 18-20 hours at 37° C., read-out: minimal inhibitory concentration (MIC). How it is done: as §1
For another series, the system named is Kleb. pneumoniae. The series can be described thus: Autotiter in vitro antibacterial test, Kleb. pneumoniae. It is filed as cell-based. The following applies: Klebsiella pneumoniae, 18-20 hours at 37° C., read-out: minimal inhibitory concentration (MIC). How it is done:
as §1

A further series has as its system S. aureus (Smith). Briefly: Autotiter in vitro antibacterial test, S. aureus (Smith). The class given is cell-based. The following applies: Staphylococcus aureus, 18-20 hours at 37° C., read-out: minimal inhibitory concentration (MIC). Here is the method:
as §1

The next series concerns E. coli (1100/B22). Briefly: Autotiter in vitro antibacterial test, E. coli (1100/B22). The class given is cell-based. The following applies: Escherichia coli, 18-20 hours at 37° C., read-out: minimal inhibitory concentration (MIC). How it is done:
as §1

Another series concerns Prot. mirabilis. The series can be described thus: Autotiter in vitro antibacterial test, Prot. mirabilis. It is filed as cell-based. The following applies: Proteus mirabilis, 18-20 hours at 37° C., read-out: minimal inhibitory concentration (MIC). Here is the method: as §1

Structures are written as SMILES. Converted amounts (≈) assume the structure as drawn. Where two headings read alike, the source gives them in different places.

As for `CN(C)N=Nc1cnc2ccccc2c1` [3,3-dimethyl-1-(3'-quinolinyl)triazene], in series [1] (allowed to dry while crude), the “stability of crude product on drying” value is given as “decomposes in a puff of smoke”. The “stability of crude product” value in series [1] (crude product) is listed as “Crude product is very unstable”. Further, the stability during microanalysis result in [1] (during microanalysis) is “Explodes during microanalysis”. For the same compound, in series [1] (purified material, on storage), the “stability of purified material on storage” value is reported as “darkens rapidly, but less dramatically, on storage”.

For `CN(C)N=Nc1ccnc2ccc(Br)cc12` [Example 6-bromo], the “activity against P-388 tumor (in words)” value with P-388 tumor (up to 40 mg/kg) is “inactive”. In addition, in the series on L-1210 leukemia, the “activity against mouse L-1210 leukemia (in words)” value is “active” and the “increase of life-span, mouse L-1210 leukemia” value (from here on “increase of life-span”) is given as 50%.

On to `CN(C)N=Nc1ccnc2ccc(Cl)cc12` [Example 6-chloro, 6-chloro-4-(3,3-dimethyl-1-triazeno)quinoline], for which, in the series with P-388 tumor (i.p. dosage of 30 mg/kg), the “activity against P-388 tumor (in words)” value is “active” and the “life-span of mice bearing i.p. implanted P-388 tumor” value was 16 to 18 days.

Take `CN(C)N=Nc1ccnc2ccc(I)cc12` [Example 6-iodo]: the “activity against P-388 tumor (in words)” value with P-388 tumor (up to 40 mg/kg) was “inactive”.

Turning to `CN(C)N=Nc1ccnc2cc(Br)ccc12` [Example 7-bromo], the “activity against P-388 tumor (in words)” value in the series on P-388 tumor (up to 40 mg/kg) was “inactive”.

Turning to `CN(C)N=Nc1ccnc2cc(Cl)ccc12` [Example 7-chloro, 7-chloro-4-(3,3-dimethyl-1-triazeno)quinoline], in the series on P-388 tumor (i.p. dosage of 30 mg/kg), the “activity against P-388 tumor (in words)” value was “active” and the “life-span of mice bearing i.p. implanted P-388 tumor” value was 16 to 18 days.

Take `CN(C)N=Nc1ccnc2c(Br)cccc12` [Example 8-bromo]: in the series with P-388 tumor (up to 40 mg/kg), the “activity against P-388 tumor (in words)” value is “inactive”. Further, in the series on L-1210 leukemia, the “activity against mouse L-1210 leukemia (in words)” value is recorded as “active” and the “increase of life-span” value is 65%.

For the compound `CN(C)N=Nc1ccnc2c(Cl)cccc12` [Example 8-chloro, 8-chloro-4-(3,3-dimethyl-1-triazeno)quinoline], in the series with P-388 tumor (i.p. dosage of 30 mg/kg), the “activity against P-388 tumor (in words)” value is listed as “active” and the “life-span of mice bearing i.p. implanted P-388 tumor” value is 16 to 18 days. For the same compound, in the series on L-1210 leukemia, the “activity against mouse L-1210 leukemia (in words)” value is recorded as “active” and the “increase of life-span” value was 65%.

`CCn1cc(C(=O)O)c(=O)c2ccc(N=NN(C)C)cc21` [Example E-1, 1-Ethyl-1,4-dihydro-7-(3,3-dimethyl-1-triazenyl)-4-oxo-3-quinolinecarboxylic Acid]: the MIC in the series on E. coli (Vogel) stood at 7.8 µg/mL (≈ 27.1 µM); in the series on Strep. pyogens, 125 µg/mL (≈ 434 µM); with Kleb. pneumoniae, 500 µg/mL (≈ 1730 µM); in the series on S. aureus (Smith), 15.6 µg/mL (≈ 54.1 µM).

As to `CN(C)N=Nc1ccc2c(=O)c(C(=O)O)cn(C)c2c1` [Example E-2, 1,4-Dihydro-1-methyl-7-(3,3-dimethyl-1-triazenyl)-4-oxo-3-quinolinecarboxylic Acid], the MIC is 125 µg/mL (≈ 456 µM) in the series on E. coli (Vogel); above 250 µg/mL in the series on E. coli (1100/B22); above 125 µg/mL in the series on Prot. mirabilis; 62.5 µg/mL (≈ 228 µM) with Strep. pyogens; above 125 µg/mL in the series on Kleb. pneumoniae; 62.5 µg/mL (≈ 228 µM) with S. aureus (Smith).

As to `CCCn1cc(C(=O)O)c(=O)c2ccc(N=NN(C)C)cc21` [Example E-3, 1,4-Dihydro-7-(3,3-dimethyl-1-triazenyl)-4-oxo-1-n-propyl-3-quinolinecarboxylic Acid], the MIC with E. coli (Vogel) was above 62.5 µg/mL; in the series on E. coli (1100/B22), above 62.5 µg/mL; with Prot. mirabilis, above 125 µg/mL; with Strep. pyogens, 31.3 µg/mL (≈ 104 µM); in the series with Kleb. pneumoniae, above 125 µg/mL; in the series on S. aureus (Smith) it was above 62.5 µg/mL.

Regarding `CCCn1cc(C(=O)O)c(=O)c2ccc(N=NN(CC)CC)cc21` [Example E-4, 7-(3,3Diethyl-1-triazenyl)-1,4-dihydro-4-oxo-1-n-propyl-3-quinolinecarboxylic Acid], the MIC with E. coli (Vogel) is above 500 µg/mL; with E. coli (1100/B22), above 500 µg/mL; in the series with Prot. mirabilis it was above 500 µg/mL; with Strep. pyogens it was 62.5 µg/mL (≈ 189 µM); with Kleb. pneumoniae it was above 500 µg/mL; in the series with S. aureus (Smith), 62.5 µg/mL (≈ 189 µM).

For the compound `CCn1cc(C(=O)O)c(=O)c2ccc(N=NN3CCN(C)CC3)cc21` [Example E-5, 1-Ethyl-1,4-dihydro-7-[(4-methyl-1-piperazinyl)azo]-4-oxo-3-quinolinecarboxylic Acid], the MIC with E. coli (Vogel) amounted to 15.6 µg/mL (≈ 45.4 µM); with Prot. mirabilis, 125 µg/mL (≈ 364 µM); with Strep. pyogens it was 125 µg/mL (≈ 364 µM); with Kleb. pneumoniae, 62.5 µg/mL (≈ 182 µM); in the series with S. aureus (Smith), 31.3 µg/mL (≈ 91.2 µM).
